Measurements reported in patent publication US20180207294A1, “NON-ALCOHOLIC FATTY LIVER REGULATING FACTOR 14-3-3 PROTEIN” (Korea University Research and Business Foundation, priority 2015, published 2018).

Key:
Assay type in all cases: cell-based
SREBP-1c protein = SREBP-1c protein expression by western blotting, HepG2 cells; details: 14-3-3 overexpression, 200 μM oleic acid 72 hours, FIG. 7D
Experimental: In addition, HepG2 cells were seeded in a 6-well plate at a density of 5×10^5 cells per each well, and then transfected with HA-14-3-3β DNA (1 μg) or HA-14-3-3γ DNA (1 μg) using an E-fection plus reagent (Lugen). A ratio of DNA to the E-fection plus reagent was 1:2, and this method was performed according to a manufacturer's manual. After transfection, the cells were treated with 200 μM of oleic acid (OA) for 72 hours, washed with ice-cold PBS, and lysed with 80 μl/well of a lysis buffer (150 mM NaCl, 1 mM EDTA, 1% Nonidet P-40, 5% glycerol, 25 mM tris-HCl, pH 7.5, protease inhibitor added), the lysed cells were centrifuged at 10,000×g and 4° C. for 10 minutes to extract proteins, and 30 μg of the proteins was separated on a 10% SDS-PAGE gel and identified using each of the antibodies (HA, SREBP-1c: Santa Cruz) by western blotting, and all antibodies were used in a ratio of 1:3000. To verify whether such regulation of mRNA expression of the target genes of PPARγ2 is the same as in the expression of a protein thereof, an expression amount of the SREBP-1c protein was checked by western blotting. As a result of the experiment, it was confirmed that the expression of the SREBP-1c protein was increased by the overexpression of 14-3-3β and reduced by the overexpression of 14-3-3γ (see FIG. 7D).

PPARγ2 = target: T1, PPARγ2 (Homo sapiens, UniProt P37231); experiment: aP2 promoter luciferase assay of PPARγ2 transcriptional activity in HEK-293T cells
T1 construct: host or cells: HEK-293T
T1 sequence (P37231 1-505): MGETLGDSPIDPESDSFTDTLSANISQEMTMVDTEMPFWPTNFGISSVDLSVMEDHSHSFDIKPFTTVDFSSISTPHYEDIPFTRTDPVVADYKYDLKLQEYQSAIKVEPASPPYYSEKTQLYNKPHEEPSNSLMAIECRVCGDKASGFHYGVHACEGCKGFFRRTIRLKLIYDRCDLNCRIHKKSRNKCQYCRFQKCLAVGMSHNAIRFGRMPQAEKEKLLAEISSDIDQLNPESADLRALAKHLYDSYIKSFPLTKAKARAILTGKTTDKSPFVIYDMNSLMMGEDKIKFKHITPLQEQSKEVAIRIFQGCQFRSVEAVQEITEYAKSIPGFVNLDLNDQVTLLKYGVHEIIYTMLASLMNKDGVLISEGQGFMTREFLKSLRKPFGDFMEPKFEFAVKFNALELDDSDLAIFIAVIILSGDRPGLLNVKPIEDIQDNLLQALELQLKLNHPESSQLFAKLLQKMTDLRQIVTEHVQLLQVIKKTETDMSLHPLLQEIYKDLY
Experimental: The transcriptional activity of PPARγ2 plays a vital role in expression of liver diseases-associated proteins. Thus, the transcriptional activity of PPARγ2 was measured using an aP2 promoter regulated by PPARγ2, and the role of 7 types of 14-3-3 proteins was investigated.
For this, HEK-293T cells were seeded in a 12-well plate at a density of 1×10^5 cells per each well, and then transfected with an aP2 promoter construct (0.5 μg) and 14-3-3 isoform proteins (α, β, γ, ε, ζ, π, θ) (0.5 μg) or si-14-3-3β and si-14-3-3γ siRNA (5 nM and 10 nM, Santa Cruz) using an E-fection plus reagent (Lugen). A ratio of DNA to the E-fection plus reagent was 1:2, and this method was performed according to a manufacturer's manual. After transfection, the corresponding cells were treated with 10 μM of pioglitazone (Pio, Santa Cruz) for 24 hours, washed with ice-cold PBS, and lysed using 80 μl/well of a reporter lysis buffer (Promega, Madison, Wis.), and the lysed cells were centrifuged at 10,000×g and 4° C. for 10 minutes to collect a supernatant, and luciferase activity was measured. As an instrument, Luminometer 20/20n (Turner Biosystems, Sunnyvale, Calif.) was used. For normalization, the cells were cotransfected with pSV40-β-galactosidase. For the collected supernatant, β-galactosidase activity was measured and the luciferase activity was revised, and the obtained values were plotted. At this time, a β-galactosidase enzyme analysis system (Promega, Madison, Wis.) was used, and analysis was performed using a DU530 spectrophotometer (Beckman Instruments, Palo Alto, Calif.).

HepG2 cells = experiment: Triglyceride colorimetric assay, HepG2 cells; details: 14-3-3 overexpression, 200 μM oleic acid 72 hours, FIG. 10A
Experimental: A triglyceride (neutral fat) is a type of fatty acid and is used as an index of a fat content. A biochemical lipid test was carried out by measuring an amount of triglycerides. HepG2 cells and primary mouse hepatocytes were separately seeded in a 6-well plate at a density of 4×10^5 cells per each well, and then transfected with GFP-14-3-3β DNA (1 μg) or GFP-14-3-3γ DNA (1 μg) and si-14-3-3β (10 μM, Santa Cruz) or si-14-3-3γ (10 μM, Santa Cruz) using an E-fection plus reagent (Lugen). A ratio of DNA to the E-fection plus reagent was 1:2, and this method was performed according to a manufacturer's manual. After transfection, the cells were treated with 200 μM of oleic acid (OA) for 72 hours, and the amount of triglycerides was measured using a triglyceride colorimetric assay kit (Cayman Chemical). The corresponding cells were washed with ice-cold PBS and then scraped using a standard diluent assay reagent, the scrapping process was repeated using a sonicator 20 times to lyse the cells, and the lysed cells were reacted with an enzyme buffer solution for 15 minutes, followed by measurement using an ELISA reader (Bio-Rad Laboratories, Inc) at a wavelength of 550 nm.

[1] = 14-3-3β / 14-3-3γ overexpressed according to concentration, FIG. 1B, 1C
[2] = overexpression of 14-3-3 isoform proteins (0.5 μg), 10 μM pioglitazone 24 hours, FIG. 1A

Substance | expression of the SREBP-1c protein (SREBP-1c protein) | transcriptional activity of PPARγ2 (activity of the aP2 promoter) (PPARγ2; [1]) | transcriptional activity of PPARγ2 (activity of the aP2 promoter) (PPARγ2; [2]) | triglyceride accumulation (HepG2 cells)
14-3-3β: 14-3-3 isoform protein, overexpressed by DNA transfection; regulating factor that increases transcriptional activity of PPARγ2 | increased | increased the transcriptional activity of PPARγ2 in a concentration-dependent manner | increased the transcriptional activity of PPARγ2 | further increased
14-3-3γ: 14-3-3 isoform protein, overexpressed by DNA transfection; regulating factor that decreases transcriptional activity of PPARγ2 | reduced | reduced the transcriptional activity of PPARγ2 in a concentration-dependent manner | decreased the transcriptional activity of PPARγ2 | reduced triglyceride accumulation
